Here are results for twelve compounds from PubChem BioAssay (NCI).

Some test systems named below: PC-3 prostate; HCC-2998 colon; MCF7 breast; HS 578T breast; MDA-MB-435; NCI/ADR-RES ovarian; KM20L2 colon; MDA-MB-231 breast; MDA-N; BT-549 breast; DLD-1 colon; XF 498 CNS.
Common to all, as to assay: DTP human tumour cell line panel, 48 h

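1) Cells in 96-well plates. 2) Compound, 48 h, 5 concentrations. 3) Linear interpolation between surrounding doses. 4) Unreached endpoint = highest concentration. GI50 marks 50% less growth. The concentration for full growth arrest is given as TGI.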

By TGI is commonly meant the concentration giving total growth inhibition. As for `Cc1ccc2ccc3ccc(C)nc3c2n1`, the TGI was > 100 µM in the test on PC-3 prostate; > 100 µM in the test on HCC-2998 colon; 0.93 µM in the test on MCF7 breast; > 100 µM in the test with HS 578T breast; > 100 µM with MDA-MB-435; > 100 µM in the test with NCI/ADR-RES ovarian. Moreover, the TGI with KM20L2 colon, with MDA-MB-231 breast, in the test with MDA-N, with BT-549 breast and with DLD-1 colon was > 100 µM throughout.

For orientation: GI50 means the concentration at which growth is held to half of that of the control. With `C=Cc1cc(OC)c2c(c1)c(=O)oc1c2cc(OC)c2c(O)ccc(C3OC(C)C(O)C(C)(O)C3O)c21` (centres undefined), the TGI came out at 0.00405 µM in the test with PC-3 prostate; 0.36 µM in the test with MCF7 breast; 0.0373 µM in the test with XF 498 CNS; 0.00683 µM in the test with HS 578T breast; 0.00365 µM with MDA-MB-435; 0.161 µM in the test with KM20L2 colon. For the same compound, the results for the TGI in the test on MDA-N, with BT-549 breast and in the test with DLD-1 colon were 0.00425 µM, 0.00758 µM and 1.07 µM, respectively. Besides, the GI50 in the test with HCC-2998 colon was 0.00253 µM; in the test on MCF7 breast, 3.58e-05 µM; in the test on NCI/ADR-RES ovarian, 0.000659 µM.

In the case of `O=C1C(=c2cc3c(c4ccccc24)=NC24CCCCC2C(c2ccccc2)C=C(c2ccccc2)N34)C(=O)c2ccccc21` (centres undefined), the TGI was > 100 µM in the test with PC-3 prostate; > 100 µM in the test with MCF7 breast; > 100 µM in the test on HS 578T breast; 70.8 µM with MDA-MB-435; > 100 µM in the test on MDA-MB-231 breast; > 100 µM with MDA-N.

As to `CN=C(N)/N=C(\N)Nc1cc2ccccc2c2ccccc12`, the TGI is 29.5 µM in the test on PC-3 prostate; 6.78 µM with HCC-2998 colon; 26.1 µM in the test on MCF7 breast; 42.3 µM in the test on HS 578T breast; 32.4 µM in the test on MDA-MB-435; 49.9 µM in the test with NCI/ADR-RES ovarian. Further, the TGI turned out to be 26.2 µM in the test on MDA-MB-231 breast, 27.8 µM in the test with MDA-N and 29.3 µM in the test with BT-549 breast.

Take `CSc1ccc(-c2cc(-c3nc4ccccc4[nH]3)nc(N)c2C#N)cc1`: the TGI with PC-3 prostate was 98.7 µM; in the test on HCC-2998 colon it was 33.1 µM; with MCF7 breast, 54.6 µM; with HS 578T breast it was > 100 µM; in the test with MDA-MB-435, 47.2 µM; in the test on NCI/ADR-RES ovarian, > 100 µM. In addition, the results for the concentration for total growth inhibition (TGI) in the test on MDA-MB-231 breast, with MDA-N and in the test on BT-549 breast were 36.1 µM, 66.1 µM and 59.6 µM, respectively.

Regarding `C[C@H](N[C@H]1CCC[C@]1(O)C#Cc1ccc2c(c1)OCO2)c1ccccc1`, the TGI in the test with PC-3 prostate, in the test on HCC-2998 colon, in the test with MCF7 breast, in the test on HS 578T breast, in the test with MDA-MB-435 and with NCI/ADR-RES ovarian was > 25 µM each time. Also, the TGI in the test with MDA-MB-231 breast was > 25 µM.

Take `CCCC1=C(C(=O)OCC)C(c2ccccc2OC)C(C#N)=C(N)O1` (centres undefined): the GI50 in the test on HCC-2998 colon is 77.3 µM; with MCF7 breast, 28.4 µM; in the test on HS 578T breast it was > 100 µM; with MDA-MB-435, 46.3 µM; in the test on NCI/ADR-RES ovarian it was 37.6 µM; in the test with MDA-MB-231 breast it was 22.4 µM. In addition, the GI50 in the test with BT-549 breast was 62.9 µM. The TGI in the test with HCC-2998 colon is > 100 µM; in the test on MCF7 breast, > 100 µM; in the test on HS 578T breast, > 100 µM; in the test on MDA-MB-435, > 100 µM; in the test on NCI/ADR-RES ovarian, > 100 µM; in the test on MDA-MB-231 breast it was 57.6 µM. In the test with BT-549 breast, the TGI was > 100 µM.

Take `C[C@@H](CO)C1=CC(C#C[Si](C)(C)C)N(C(=O)Oc2ccccc2)c2ccccc21` (some centres undefined): the TGI in the test on PC-3 prostate came to 64.1 µM; with HCC-2998 colon, 29.9 µM; in the test with HS 578T breast it was 47 µM; with MDA-MB-435, 15.5 µM; in the test with NCI/ADR-RES ovarian, 31.3 µM; in the test with MDA-MB-231 breast, 37.8 µM. Moreover, the TGI in the test on MDA-N was 23.7 µM.

As to `O=C1/C(=C/c2ccc(Cl)cc2)N=C(c2ccccc2)N1c1nc2c(Cl)cc(Cl)cc2s1`, the TGI is 45.9 µM in the test with PC-3 prostate; > 100 µM with HCC-2998 colon; > 100 µM in the test on MCF7 breast; 90.1 µM in the test on HS 578T breast; 86.2 µM in the test on MDA-MB-435; 81.3 µM in the test on NCI/ADR-RES ovarian. Also, the TGI with MDA-MB-231 breast was found to be 92.3 µM; in the test on MDA-N it was 39.2 µM; with BT-549 breast, 82.9 µM.

`O=C(NCCNc1nccc(-c2c(-c3cccc(O)c3)nc3sccn23)n1)Nc1cccc(C(F)(F)F)c1`: the GI50 is 2.94 µM in the test with PC-3 prostate; 2.68 µM in the test with HCC-2998 colon; 3.57 µM in the test with MCF7 breast; 3.56 µM in the test with HS 578T breast; 2.04 µM in the test with MDA-MB-435; 26.9 µM in the test with NCI/ADR-RES ovarian. Moreover, in the test with MDA-MB-231 breast, the GI50 is 3.52 µM. In addition, the TGI with PC-3 prostate was 12.6 µM; with HCC-2998 colon, 5.77 µM; in the test on MCF7 breast, 16 µM; with HS 578T breast, 17.8 µM; in the test on MDA-MB-435, 4.94 µM; in the test with NCI/ADR-RES ovarian, > 100 µM. This compound also showed a TGI in the test with MDA-MB-231 breast of 12.3 µM.

In the case of `COc1cc2c(cc1OC)C1Cc3cc(OC)c(OC)cc3C(C2)O1`, the total growth inhibition concentration (TGI) with PC-3 prostate, in the test with HCC-2998 colon, in the test on MCF7 breast, in the test with MDA-MB-435, in the test on NCI/ADR-RES ovarian and with MDA-MB-231 breast was > 100 µM in each case. For the same compound, the TGI in the test on MDA-N and in the test on BT-549 breast was > 100 µM each time.

As to `CNS(=O)(=O)c1ccc2[nH]c(O)c(C3=Nc4ccccc4C3=O)c2c1`, the TGI in the test with PC-3 prostate, in the test on HCC-2998 colon, in the test with HS 578T breast, in the test on MDA-MB-435, with NCI/ADR-RES ovarian and in the test on MDA-MB-231 breast was > 100 µM in each case. Further, the TGI in the test on MDA-N and in the test on BT-549 breast was > 100 µM throughout.
